In patent publication US20220041559A1, “BENZO-AND PYRIDO-PYRAZOLES AS PROTEIN KINASE INHIBITORS” (ROTTAPHARM BIOTECH S.R.L., priority 2019, published 2022):

Experiments:
YES kinase = target: T1, YES kinase (Homo sapiens, UniProt P07947); assay: ADP-Glo in vitro kinase assay, YES kinase inhibition; format: biochemical; details: ATP 50 μM, 30 minutes at room temperature
T1 construct: purchased Thermo Fisher
Experimental: The ADP-Glo™ Kinase Assay (Promega), monitoring ADP produced in the kinase reaction, was performed in two steps. In the first one, after the kinase reaction, the ADP-Glo™ Reagent is added to terminate the kinase reaction and deplete the remaining ATP. In the second step, the Kinase Detection Reagent is added to simultaneously convert ADP to ATP (ATPn or newly synthesized ATP) and introduce luciferase and luciferin, allowing the ATPn to be measured (luciferase/luciferin reaction). The amount of light generated correlates with the amount of ATPn (indirectly with the ADP produced in kinase reaction).
Kinase reaction was performed in 10 μl in a white 384-well plate, inhibitor solutions in DMSO/Kinase buffer (40 mM Tris-Cl, 20 mM MgCl2, 0.1 mg/ml BSA, 50 μM DTT, pH 7.5) and YES kinase in Kinase buffer (Thermo Fisher, 0.5 ng/μl final concentration in assay) were pre-incubate 15 minutes at room temperature. At the kinase concentration selected, a signal-to negative control ratio >10 was calculated, according to supplier indication. […]
The range of inhibitor concentrations was from 10^−10 M up to 10^−5 M (final concentration in assay) and each experimental point was performed in duplicate. […] The luminescence was measured with a plate-reading luminometer (Envision 2104 Multilabel reader, PerkinElmer). […]

U87MG-luc tumor cells = assay: Reduction of tumor growth in intracranial U87MG-luc glioblastoma bearing mice; format: in vivo, athymic Nude mice; details: 50 mg/kg orally once a day, days 9-19
Experimental: Human U87MG cells (Glioblastoma Cancer cell line) were engineered to express the luciferase gene (U87MG-luc). Cultured U87MG-luc tumor cells were intracranially injected in athymic Nude mice. Eight days from injection mice were randomised on the basis of luminescence values emitted by luciferase-expressing U87M-luc tumor cells and divided into 2 treatment groups. The treatment started on day 9 and lasted 10 days. Mice were orally dosed with vehicle or with compound 5 of invention (50 mg/kg, once a day). The tumor growth was evaluated by real-time Bioluminescence Imaging at the end of the treatments period (day 19) and on day 26 and 33, form the cell injection. The tumour growth was reduced in mice treated with compound 5 compared to mice treated with vehicle alone.

EGFR = EGFR (Homo sapiens, UniProt P00533); assay: ADP-Glo in vitro kinase assay, EGFR kinase inhibition; format: biochemical; design: purchased SignalChem
Chain of EGFR (P00533 25-1210): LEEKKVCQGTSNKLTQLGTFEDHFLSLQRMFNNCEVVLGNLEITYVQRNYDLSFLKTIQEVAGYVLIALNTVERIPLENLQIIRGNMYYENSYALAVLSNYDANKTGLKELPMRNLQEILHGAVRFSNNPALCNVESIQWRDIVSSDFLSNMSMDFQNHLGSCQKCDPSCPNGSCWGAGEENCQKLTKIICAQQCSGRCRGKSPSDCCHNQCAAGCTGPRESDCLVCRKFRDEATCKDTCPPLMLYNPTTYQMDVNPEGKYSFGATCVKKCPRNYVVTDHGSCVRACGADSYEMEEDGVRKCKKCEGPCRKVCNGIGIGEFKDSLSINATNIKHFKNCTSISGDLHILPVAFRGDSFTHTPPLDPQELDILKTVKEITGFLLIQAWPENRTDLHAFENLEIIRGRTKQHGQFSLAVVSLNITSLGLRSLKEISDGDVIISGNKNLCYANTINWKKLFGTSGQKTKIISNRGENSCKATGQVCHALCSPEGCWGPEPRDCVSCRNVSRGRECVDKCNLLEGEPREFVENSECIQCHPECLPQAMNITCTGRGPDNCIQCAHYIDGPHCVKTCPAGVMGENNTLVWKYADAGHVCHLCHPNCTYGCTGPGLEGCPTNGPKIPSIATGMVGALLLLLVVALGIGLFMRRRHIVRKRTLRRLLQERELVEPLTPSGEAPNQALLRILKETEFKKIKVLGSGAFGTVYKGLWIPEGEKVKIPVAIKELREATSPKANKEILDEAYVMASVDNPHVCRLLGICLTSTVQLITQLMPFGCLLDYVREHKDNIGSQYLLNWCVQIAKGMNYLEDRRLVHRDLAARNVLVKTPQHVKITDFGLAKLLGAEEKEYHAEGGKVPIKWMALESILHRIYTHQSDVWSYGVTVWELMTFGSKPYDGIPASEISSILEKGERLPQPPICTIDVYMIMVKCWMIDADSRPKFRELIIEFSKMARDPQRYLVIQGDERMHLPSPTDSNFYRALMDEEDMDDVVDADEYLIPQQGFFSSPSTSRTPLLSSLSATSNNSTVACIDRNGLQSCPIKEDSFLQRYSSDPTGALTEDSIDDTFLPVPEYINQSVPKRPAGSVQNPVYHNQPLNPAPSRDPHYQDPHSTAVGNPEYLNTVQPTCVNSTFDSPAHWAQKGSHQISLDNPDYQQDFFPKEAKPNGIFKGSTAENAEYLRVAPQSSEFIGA
Outline: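 EGFR (2.5 ng/μl final) pre-incubated 15 min at room temperature with inhibitor (10^−11 to 3×10^−6 M final) in Tris-Cl pH 7.5 buffer with MgCl2, BSA, DTT. Reaction started with substrate plus 10 μM ATP (near Km), run 30 min at room temperature; ADP measured by ADP-Glo luminescence. IC50 from non-linear fit of % inhibition vs. no-inhibitor activity, duplicates.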

FYN = target: T2, FYN (Homo sapiens, UniProt P06241); assay: Z'-LYTE in vitro kinase assay, FYN kinase inhibition; format: biochemical
T2 construct: purchased CarnaBioscience
T2 sequence (P06241 whole entry): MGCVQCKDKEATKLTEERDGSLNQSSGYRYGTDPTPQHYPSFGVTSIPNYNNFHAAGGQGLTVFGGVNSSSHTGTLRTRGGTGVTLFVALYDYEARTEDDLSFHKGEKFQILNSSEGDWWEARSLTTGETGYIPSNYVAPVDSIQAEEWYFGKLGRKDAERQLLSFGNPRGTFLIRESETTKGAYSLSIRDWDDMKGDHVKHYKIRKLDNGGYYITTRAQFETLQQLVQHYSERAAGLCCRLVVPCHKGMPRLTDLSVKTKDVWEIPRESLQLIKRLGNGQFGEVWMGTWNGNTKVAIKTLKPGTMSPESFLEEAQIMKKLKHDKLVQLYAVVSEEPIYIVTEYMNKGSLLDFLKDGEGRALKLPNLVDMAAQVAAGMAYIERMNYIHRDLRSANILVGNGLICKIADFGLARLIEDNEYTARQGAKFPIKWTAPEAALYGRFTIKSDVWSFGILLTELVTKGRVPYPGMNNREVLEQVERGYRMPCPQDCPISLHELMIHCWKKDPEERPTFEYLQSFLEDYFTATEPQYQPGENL
Outline: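 Active FYN incubated with Z′-LYTE Tyr 2 peptide, near-Km ATP and compound (10^−10 to 10^−5 M final, 1% DMSO) in 50 mM Hepes pH 7.5, 10 mM MgCl2, 1 mM EGTA, 0.01% Brij-35, 60 min at 25° C. Protease development then coumarin/fluorescein FRET readout gives % phosphorylation; IC50 by non-linear fitting.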

T1 sequence (P07947 whole entry): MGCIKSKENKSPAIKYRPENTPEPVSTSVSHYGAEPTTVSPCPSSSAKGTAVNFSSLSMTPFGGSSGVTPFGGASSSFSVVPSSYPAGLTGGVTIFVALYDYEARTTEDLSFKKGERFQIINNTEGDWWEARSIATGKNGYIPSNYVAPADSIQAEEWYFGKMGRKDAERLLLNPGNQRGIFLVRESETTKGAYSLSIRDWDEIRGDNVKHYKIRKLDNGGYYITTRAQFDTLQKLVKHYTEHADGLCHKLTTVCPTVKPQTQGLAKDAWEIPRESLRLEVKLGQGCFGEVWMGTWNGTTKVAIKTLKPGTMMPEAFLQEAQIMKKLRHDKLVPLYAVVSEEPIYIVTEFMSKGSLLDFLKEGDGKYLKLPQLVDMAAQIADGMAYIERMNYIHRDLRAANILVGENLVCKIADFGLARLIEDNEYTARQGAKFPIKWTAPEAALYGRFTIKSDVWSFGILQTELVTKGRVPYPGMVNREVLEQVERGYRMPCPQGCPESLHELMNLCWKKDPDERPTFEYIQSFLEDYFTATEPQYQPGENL

CN1CCC(c2ccc(C(=O)Nc3n[nH]c4nc(Nc5ccccc5F)ccc34)cc2)CC1 [Compound 5, N-(6-((2-fluorophenyl)amino)-1H-pyrazolo[3,4-b]pyridin-3-yl)-4-(1-methylpiperidin-4-yl)benzamide]
IC50 (YES kinase): 3.6 nM
inhibition of tumour growth (percentage of radiance inhibition) (U87MG-luc tumor cells; day 19): 24.9%
inhibition of tumour growth (percentage of radiance inhibition) (U87MG-luc tumor cells; day 26): 34.4%
inhibition of tumour growth (percentage of radiance inhibition) (U87MG-luc tumor cells; day 33): 60.4%
IC50 (EGFR; ATP 10 μM, 30 minutes at room temperature): 6 nM
EGFR kinase inhibition, result in words (EGFR; text summary of Table 18): more active
FYN kinase inhibition, result in words (FYN; Table 17): more active
IC50 (FYN; near-Km ATP, 60 minutes at 25° C.): 69 nM
